Legend:
[1] = Solubility Test (35 wt% solution in isopropylalcohol shaken with water, brine or heptane); assay type: physicochemical; settings: for SOLUBILITY IN: Heptane: 0.3 ml of 35 wt% IPA solution in 10 ml heptane, 30 minutes and 24 hours; for SOLUBILITY IN: Water: 0.3 ml of 35 wt% IPA solution in 10 ml water, observed after 30 minutes and 24 hours
Experimental: The active material under test was made up into a 35 wt% solution in isopropylalcohol (IPA). 0.3 ml of this solution was shaken with 10 ml of each of the liquids in which solubility is to be tested: water, 5 wt% NaCl solution (brine) and heptane. The mixture was observed after 30 minutes and 24 hours.

[2] = Emulsion Test (3 wt% brine / heptane); assay type: physicochemical; parameters: Emulsion thickness after 30 mins: unit not given here; settings: for Time to break emulsion: 1 ml of 35 wt% IPA solution, 50 ml 3 wt% brine, 50 ml heptane; for Appearance after 30 mins, hydrocarbon: hydrocarbon layer; for Appearance after 30 mins, water: water layer
Experimental: 1 ml of the solutions used for Test A was shaken with 50 ml of 3 wt% brine and 50 ml of heptane for 1 minute in a 150 ml bottle. The emulsion was observed, and the time noted for the emulsion to break and form a clean interface with clear liquid layers. If at 30 minutes this had not occurred, the appearance was recorded together with the thickness of any persisting emulsion.

[3] = Corrosion Test 1 (dynamic wheel test; 3 wt% brine/Mentor 28; CO2 + H2S); settings: 24 h, 70° C., 30% solution
Experimental: (§1) For each compound three mild steel coupons (approximately 100 mm×12 mm×1.5 mm) were tested at each concentration. Each was contacted in a 250 ml bottle with 200 ml of a test fluid either saturated with a carbon dioxide at 20° C. or containing 100 ppm hydrogen sulphide or having both CO2 and H2 S present in those amounts. The test fluid was treated with a 30% aqueous solution of the compound under test at 2, 10, 50 and 250 ppm except where indicated to the contrary. The coupon was subjected to a dynamic wheel test in which the bottle was mounted radially on the periphery of 650 mm diameter wheel which was rotated at about 40 rpm for 24 hours at 70° C. The weight loss was obtained, and also measured in a control experiment where no inhibitor was present. From this the % protection was calculated as % reduction in weight loss.
Test fluid: 100 ml 3 wt% brine/100 ml Mentor 28 (Mentor®28 is a depolarised kerosene available from Exxon Chemical Company)
(§2) Corrosives: Saturated CO2 +100 ppm H2 S

[4] = Corrosion Test 4 (dynamic wheel test; 3 wt% brine + Mentor 28; H2S); settings: 24 h, 70° C.
Experimental: as §1
(§3) Test fluid: 100 ml 3 wt% brine+100 ml Mentor 28
Corrosives: 100 ppm H2 S (prior nitrogen purge)

[5] = Corrosion inhibition tests, constant concentration conditions (overall)
Experimental: as §1

[6] = Corrosion Test 2 (dynamic wheel test; 3 wt% brine; CO2 + H2S); settings: 24 h, 70° C.
Experimental: as §1
Test Fluid: 200 ml 3 wt% brine
as §2

[7] = Corrosion Test 3 (dynamic wheel test; 3 wt% brine + Mentor 28; CO2 only); settings: 24 h, 70° C.
Experimental: as §1, §3
Corrosives: Saturated CO2 only

[8] = Film persistency corrosion test; settings: CO2 + H2S, 24 h, 70° C.
Experimental: […] A test fluid made up of equal proportions of 3 wt% brine and Mentor 28 was used, saturated with CO2 and containing 100 ppm H2 S as corrosives. Coupons were used as described for the previous corrosion test. A coupon was first immersed in test fluid containing corrosives and the inhibitor under test for 1 hour, then rinsed for 1 hour in a similar test fluid containing no inhibitor and finally transferred to a further test fluid again containing no inhibitor in which the dynamic wheel test was carried out at 70° C. for 24 hours.

[9] = 50 ml 3 wt% brine/50 ml heptane

| Structure (SMILES) | SOLUBILITY IN: Heptane [1] | SOLUBILITY IN: Water [1] | Time to break emulsion [2] [min] | Appearance after 30 mins, hydrocarbon [2, 9] | Appearance after 30 mins, water [2, 9] | % Protection ([3]; 2 ppm) [%] | % Protection ([3]; 10 ppm) [%] | % Protection ([3]; 50 ppm) [%] | % Protection ([3]; 250 ppm) [%] | % Protection ([4]; 2 ppm) [%] | % Protection ([4]; 10 ppm) [%] | % Protection ([4]; 250 ppm) [%] | performance of 2:1 derivatives compared with 1:1 derivatives [5] | % Protection ([6]; 2 ppm) [%] | % Protection ([6]; 10 ppm) [%] | % Protection ([6]; 50 ppm) [%] | % Protection ([6]; 250 ppm) [%] | other results |
| --- | --- | --- | --- | --- | --- | --- | --- | --- | --- | --- | --- | --- | --- | --- | --- | --- | --- | --- |
| CCCCCCCCCCCCN(CCc1ccccn1)CCc1ccccn1 [Example 19] | S | S | > 30 | hazy | hazy | 16 | 71 | 77 | 86 | 2 | 57 | 57 | tended to perform less well than 1:1 derivatives | – | – | – | – | – |
| c1ccc(CN(CCc2ccccn2)CCc2ccccn2)cc1 [Example 20] | S | S | 1 | clear | clear | 24 | 25 | 63 | 81 | – | – | – | tended to perform less well than 1:1 derivatives | 51 | 63 | 75 | 91 | – |
| CCCCCCCCCCCCN(CCc1ccncc1)CCc1ccncc1 [Example 39] | – | – | > 30 | hazy | hazy | 26 | 70 | 89 | 89 | 3 | 26 | 85 | tended to perform less well than 1:1 derivatives | 41 | 65 | 78 | 87 | Emulsion thickness after 30 mins [2, 9]: 0.1; % Protection ([7]; 2 ppm): 9%; % Protection ([7]; 10 ppm): 5%; % Protection ([7]; 250 ppm): 15%; % Protection ([4]; 50 ppm): 64%; % Protection ([8]; 500 ppm): 20%; % Protection ([8]; 1000 ppm): 24%; % Protection ([8]; 5000 ppm): 33% |
| CCCCCCN(CCc1ccncc1)CCc1ccncc1 [Example 38] | – | – | 1 | clear | clear | 2 | 64 | 79 | 80 | – | – | – | tended to perform less well than 1:1 derivatives | – | – | – | – | – |
